These are literature values, as cited in US20260345593A1, “ORAL FORMULATION OF N-PYRIDINYL ACETAMIDE DERIVATIVE FOR TREATING INTERSTITIAL LUNG DISEASE” (AstraZeneca AB, priority 2022, published 2026).

Data set [1] relates to Axin2 expression levels in skin samples from subjects with advanced cancers. Particulars: 10 mg once daily, cited from earlier work.
Data set [2] concerns patients with IPF. The note with it: cited from earlier work; for rate of decline in lung function: patients with IPF (King 2014 and Richeldi 2014); for GI side effects / tolerability in IPF patients: patients with IPF.
The test system of data set [3] is patients with ILD-PF other than IPF. Particulars: ILD-PF other than IPF (Wells 2020); cited from earlier work.
Data set [4] concerns pH elevation. Particulars: 20 mg BID oral pre-treatment; cited from earlier work.
For data set [5] the following is noted: 20 mg BID, preclinical and clinical studies; cited from earlier work.
For data set [6], the system named is ILD patients with SSc-ILD. The note with it: SSc-ILD (Khanna 2020); cited from earlier work.

As to `Cc1cc(-c2ncc(CC(=O)Nc3ccc(-c4cnccn4)cn3)cc2C)ccn1` [Wnt974], the “reduction in Axin2 expression levels in skin samples” value in data set [1] (subjects with advanced cancers (Rodon 2021)) is “approximately 90%”. In addition, the “average Ctrough at steady state” value in data set [1] (subjects with advanced cancers) is given as 3.7 ×IC50.
On to `Cc1ccc(=O)n(-c2ccccc2)c1` [pirfenidone], for which, in data set [2], the “rate of decline in lung function” value is reported as “slow the rate of decline in lung function”, the GI side effects entry is reported as “troublesome GI side effects” and the “tolerability in IPF patients” value was “many patients with IPF are not able to tolerate these medications”.
Regarding `COC(=O)c1ccc2c(c1)NC(=O)/C2=C(\Nc1ccc(N(C)C(=O)CN2CCN(C)CC2)cc1)c1ccccc1` [nintedanib, methyl (3Z)-3-{[(4-{methyl[(4-methylpiperazin-1-yl)acetyl]amino}phenyl)amino](phenyl)methylidene}-2-oxo-2,3-dihydro-1H-indole-6-carboxylate], in data set [2], the “rate of decline in lung function” value is recorded as “slow the rate of decline in lung function”, the GI side effects result is recorded as “troublesome GI side effects” and the “tolerability in IPF patients” value was “many patients with IPF are not able to tolerate these medications”. Moreover, the “rate of decline in lung function” value in data set [3] is recorded as “slow the rate of decline in lung function in these patients”.
On to `COCCCOc1ccnc(C[S+]([O-])c2nc3ccccc3[nH]2)c1C` (racemic) [rabeprazole, (RS)-2-([4-(3-methoxypropoxy)-3-methylpyridin-2-yl]methylsulfinyl)-1H-benzo[d]imidazole], for which the “time to PD steady state of pH elevation” value in data set [4] is 3 days. Also, the safety concerns entry in data set [5] is listed as “not raised any notable safety concerns”.
On to “Tocilizumab: a monoclonal antibody directed against the IL-6 receptor”, for which the “progression of lung disease” value in data set [6] is given as “slow progression of lung disease”.
